Assay results taken from US20170190671A1, “BIS(ARYL)CATECHOL DERIVATIVES AS HERBICIDES” (E I DU PONT DE NEMOURS AND COMPANY, priority 2014, published 2017).

How the values were obtained:
Format in all cases: in vivo
[1] = system: barnyardgrass (Echinochloa crus-galli); assay: Test B flooded paddy; details: Echinochloa crus-galli, 336 h; 250 g ai/ha, Flood, 13 to 15 days, scale 0 (no effect) to 100 (complete control); read-out: Plant response rating, Barnyardgrass
In short: (§1)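 In-water treatment: compound dosed into 3 cm flood over soil, water level unchanged throughout. Controls run alongside; visual assessment at day 13–15.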

[2] = system: ducksalad (Heteranthera limosa); assay: Test B flooded paddy; details: Heteranthera limosa, 336 h; 250 g ai/ha, Flood, 13 to 15 days, scale 0 (no effect) to 100 (complete control); read-out: Plant response rating, Ducksalad
In short: as §1

rice (Oryza sativa) = assay: Test B flooded paddy; details: Oryza sativa, 336 h; 250 g ai/ha, Flood, 13 to 15 days, scale 0 (no effect) to 100 (complete control); read-out: Plant response rating, Rice
In short: as §1

[3] = system: sedge, umbrella (small-flower umbrella sedge, Cyperus difformis); assay: Test B flooded paddy; details: Cyperus difformis, 336 h; 250 g ai/ha, Flood, 13 to 15 days, scale 0 (no effect) to 100 (complete control); read-out: Plant response rating, Sedge, Umbrella
In short: as §1

[4] = system: Italian ryegrass (Lolium multiflorum); assay: Test A preemergence; details: Lolium multiflorum, pre-emergence, 240 h, 0 to 100 scale (0 no effect, 100 complete control), read-out: Ryegrass, Italian plant response rating
In short: (§2)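 Visual injury scored 0–100 (100 = complete control) against untreated controls about 10 days after treatment in a greenhouse. Test chemicals, formulated with surfactant in non-phytotoxic solvent, were sprayed on soil preemergence or on 2-10 cm, one- to two-leaf plants postemergence.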

[5] = system: barnyardgrass (Echinochloa crus-galli); assay: Test A preemergence; details: Echinochloa crus-galli, pre-emergence, 240 h
In short: as §2

[6] = system: giant foxtail (Setaria faberii); assay: Test A preemergence; details: Setaria faberi, pre-emergence, 240 h, 0 to 100 scale (0 no effect, 100 complete control), read-out: Foxtail, Giant plant response rating
In short: as §2

kochia (Kochia scoparia) [7] = assay: Test A preemergence; details: Bassia scoparia, pre-emergence, 240 h, 0 to 100 scale (0 no effect, 100 complete control), read-out: Kochia plant response rating
In short: as §2

[8] = system: pigweed (Amaranthus retroflexus); assay: Test A preemergence; details: Amaranthus retroflexus, pre-emergence, 240 h, 0 to 100 scale (0 no effect, 100 complete control), read-out: Pigweed plant response rating
In short: as §2

[9] = system: ragweed (common ragweed, Ambrosia elatior); assay: Test A preemergence; details: Ambrosia artemisiifolia, pre-emergence, 240 h, 0 to 100 scale (0 no effect, 100 complete control), read-out: Ragweed plant response rating
In short: as §2

[10] = system: Italian ryegrass (Lolium multiflorum); assay: Test A postemergence; details: Lolium multiflorum, post-emergence, 240 h, 0 to 100 scale, read-out: Plant response rating, Ryegrass, Italian
In short: as §2

[11] = system: barnyardgrass (Echinochloa crus-galli); assay: Test A postemergence; details: Echinochloa crus-galli, post-emergence, 240 h, 0 to 100 scale, read-out: Plant response rating, Barnyardgrass
In short: as §2

[12] = system: blackgrass (Alopecurus myosuroides); assay: Test A postemergence; details: Alopecurus myosuroides, post-emergence, 240 h, 0 to 100 scale, read-out: Plant response rating, Blackgrass
In short: as §2

corn (Zea mays) = assay: Test A postemergence; details: Zea mays, post-emergence, 240 h, 0 to 100 scale
In short: as §2

[13] = system: galium (catchweed bedstraw, Galium aparine); assay: Test A postemergence; details: Galium, post-emergence, 240 h, 0 to 100 scale, read-out: Plant response rating, Galium
In short: as §2

[14] = system: giant foxtail (Setaria faberii); assay: Test A postemergence; details: Setaria faberi, post-emergence, 240 h, 0 to 100 scale, read-out: Plant response rating, Foxtail, Giant
In short: as §2

kochia (Kochia scoparia) [15] = assay: Test A postemergence; details: Bassia scoparia, post-emergence, 240 h, 0 to 100 scale, read-out: Plant response rating, Kochia
In short: as §2

[16] = system: pigweed (Amaranthus retroflexus); assay: Test A postemergence; details: Amaranthus retroflexus, post-emergence, 240 h, 0 to 100 scale, read-out: Plant response rating, Pigweed
In short: as §2

[17] = system: ragweed (common ragweed, Ambrosia elatior); assay: Test A postemergence; details: Ambrosia artemisiifolia, post-emergence, 240 h, 0 to 100 scale, read-out: Plant response rating, Ragweed
In short: as §2

[18] = system: wheat (Triticum aestivum); assay: Test A postemergence; details: Triticum aestivum, post-emergence, 240 h, 0 to 100 scale, read-out: Plant response rating, Wheat
In short: as §2

[19] = system: Italian ryegrass (Lolium multiflorum); assay: Test C preemergence; details: Lolium multiflorum, pre-emergence, 336 h, scale 0 to 100, read-out: Plant response rating, Ryegrass, Italian
In short: (§3)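 Seeds sown in a loam soil and sand blend were treated preemergence; plants in peat-moss/vermiculite medium were sprayed at the 1- to 4-leaf stage (2-18 cm). Chemicals were in a non-phytotoxic surfactant-containing solvent. After 13 to 15 days in a greenhouse, injury was visually rated against controls on a 0-100 scale.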

[20] = system: waterhemp (common waterhemp, Amaranthus rudis); assay: Test C preemergence; details: Amaranthus tuberculatus, pre-emergence, scale 0 to 100, read-out: Plant response rating, Waterhemp
In short: as §3

N#Cc1cccc(Oc2ncc(Cl)cn2)c1Oc1ccc(Br)cn1 [Compound 15]
pest or weed control at 250 g/ha [1]: 0% | pest or weed control at 250 g/ha [2]: 75% | plant injury at 250 g/ha (rice (Oryza sativa)): 0% | pest or weed control at 250 g/ha [3]: 90% | pest or weed control at 31 g/ha ([4]; 31 g ai/ha): 0% | pest or weed control at 125 g/ha ([4]; 125 g ai/ha): 10% | pest or weed control at 31 g/ha ([5]; 31 g ai/ha, 0 to 100 scale (0 no effect, 100 complete control), read-out: Barnyardgrass plant response rating): 0% | pest or weed control at 125 g/ha ([5]; 125 g ai/ha, 0 to 100 scale, read-out: Plant response rating, Barnyardgrass): 60% | pest or weed control at 31 g/ha ([6]; 31 g ai/ha): 60% | pest or weed control at 125 g/ha ([6]; 125 g ai/ha): 100% | pest or weed control at 31 g/ha (kochia (Kochia scoparia) [7]; 31 g ai/ha): 90% | pest or weed control at 125 g/ha (kochia (Kochia scoparia) [7]; 125 g ai/ha): 100% | pest or weed control at 31 g/ha ([8]; 31 g ai/ha): 80% | pest or weed control at 125 g/ha ([8]; 125 g ai/ha): 100% | pest or weed control at 31 g/ha ([9]; 31 g ai/ha): 0% | pest or weed control at 125 g/ha ([9]; 125 g ai/ha): 0% | pest or weed control at 31 g/ha ([10]; 31 g ai/ha): 0% | pest or weed control at 125 g/ha ([10]; 125 g ai/ha): 50% | pest or weed control at 31 g/ha ([11]; 31 g ai/ha): 0% | pest or weed control at 125 g/ha ([11]; 125 g ai/ha): 20% | pest or weed control at 31 g/ha ([12]; 31 g ai/ha): 0% | pest or weed control at 125 g/ha ([12]; 125 g ai/ha): 70% | Corn plant response rating (crop injury, 0 = no effect, 100 = complete kill) at 31 g/ha (corn (Zea mays); 31 g ai/ha): 10% | Corn plant response rating (crop injury, 0 = no effect, 100 = complete kill) at 125 g/ha (corn (Zea mays); 125 g ai/ha): 10% | pest or weed control at 31 g/ha ([13]; 31 g ai/ha): 50% | pest or weed control at 125 g/ha ([13]; 125 g ai/ha): 90% | pest or weed control at 31 g/ha ([14]; 31 g ai/ha): 20% | pest or weed control at 125 g/ha ([14]; 125 g ai/ha): 90% | pest or weed control at 31 g/ha (kochia (Kochia scoparia) [15]; 31 g ai/ha): 40% | pest or weed control at 125 g/ha (kochia (Kochia scoparia) [15]; 125 g ai/ha): 90% | pest or weed control at 31 g/ha ([16]; 31 g ai/ha): 100% | pest or weed control at 125 g/ha ([16]; 125 g ai/ha): 100% | pest or weed control at 31 g/ha ([17]; 31 g ai/ha): 10% | pest or weed control at 125 g/ha ([17]; 125 g ai/ha): 10% | plant injury at 31 g/ha ([18]; 31 g ai/ha): 0% | plant injury at 125 g/ha ([18]; 125 g ai/ha): 10% | pest or weed control at 31 g/ha ([19]; 31 g ai/ha, preemergence): 5% | pest or weed control at 62 g/ha ([19]; 62 g ai/ha, preemergence): 40% | pest or weed control at 125 g/ha ([19]; 125 g ai/ha, preemergence): 60% | pest or weed control at 16 g/ha ([19]; Preemergence, 16 g ai/ha): 0% | pest or weed control at 31 g/ha ([20]; 31 g ai/ha, preemergence): 100% | pest or weed control at 62 g/ha ([20]; 62 g ai/ha, preemergence): 100% | pest or weed control at 125 g/ha ([20]; 125 g ai/ha, preemergence): 100% | pest or weed control at 16 g/ha ([20]; Preemergence, 16 g ai/ha): 100%
